Assay results taken from patent US9375457B2, “Composition comprising Rhizoma coptidis, Cortex phellodendri and Fructus gardeniae and for treating neurodegenerative diseases” (Hong Kong Baptist University, priority 2013, dated 2016).

What was measured:
Assay type in all cases: cell-based, murine
[1] = test system: intracellular Aβ1-40 and Aβ1-42 in N2a-SwedAPP cells; assay: Sandwich ELISA of intracellular Aβ in N2a-SwedAPP cells; set-up: key to Aβs (overall influence): ↓ decreased; ↑ increased; ? unchanged
Method: N2a-SwedAPP cells were seeded at a density of 4×10^5/mL in DMEM medium in a 6-well plate and cultured for 1 day. After transfer, cells were treated with different doses of RC, CP, FG and RS for 48 hours, then the extracellular media were collected for detection of sAPPα and sAPPβ-sw, and cells were harvested to quantify F1-APP and β-actin by Western blot analysis, as described previously by Durairajan et al. For intracellular APP, APP-CTFs and Aβ preparation, cells were washed with ice-cold PBS twice and solubilized in ice-cold RIPA buffer with protease inhibitor cocktail added. Lysates were collected and centrifuged at 16,000×g for 15 minutes at 4° C. The resulting supernatants were collected, and their protein concentrations were determined with bicinchoninic acid (BCA) protein assay reagent (Thermo Scientific, IL, USA). […] The conditioned media were standardized to total cell lysate protein.
The levels of intracellular Aβ1-40 and Aβ1-42 are quantified by using a sandwich ELISA as previously described by Durairajan et al., 2011 with minor modification. Equal amounts of cell or brain lysates are used for Aβ quantification by sandwich ELISA. The monoclonal antibody 6E10 is used as the capture antibody by adding to ELISA plates (0.2 μg diluted in 0.1 M Na2CO3 (pH 9.6) per well) and incubated overnight at 4° C. The plates are washed with PBS (0.05% Tween 20) and blocked with 4% BlockAce (Serotec, Raleigh, N.C., USA) for 2 hours at room temperature. Equilibrated protein lysates from each treatment (a 100 μL volume is adjusted in all treatment groups by using PBS) are applied in duplicate and incubated at room temperature for 2 hours with constant rotation at 30 rpm. Biotinylated monoclonal anti-Aβ40 5C3 (50 ng per well) and biotinylated monoclonal 8G7 (50 ng per well) antibodies are used for detection of Aβ1-40 and Aβ1-42, respectively, and are diluted in 1% BlockAce and incubated for 2 hours at room temperature. Plates are thoroughly washed with PBS (0.05% Tween 20), and streptavidin conjugated HRP is added for 1 hour at room temperature. Finally the plates are washed four times with PBST before adding the substrate TMB for 30 minutes. Absorbance at 450 nm is measured in duplicate wells after addition of 2 M H2SO4. All ELISA experimental data are from three different days. Synthetic Aβ40 and Aβ42 peptides are used for construction of calibration curves, and Aβ is measured in lysates.

[2] = test system: APP processing (F1-APP, pAPPThr668, CTFs, sAPPα, sAPPβ-sw) in N2a-SwedAPP cells; assay: Western blot of APP metabolic products in N2a-SwedAPP cells; set-up: key to Fl-APP (overall influence) / CTFs (overall influence) / sAPPα (overall influence) / sAPPβ (overall influence): ↓ decreased; ↑ increased; ? unchanged
Method: (§1) N2a-SwedAPP cells were obtained from Dr. Gopal Thinakaran (University of Chicago, Chicago, Ill., USA). N2a-SwedAPP cells were cultured in Dulbecco's modified Eagle's medium (DMEM) and OPTI-MEM medium in a 1:1 ratio with 5% FBS, 50 μg/mL penicillin, 50 μg/mL streptomycin and 200 μg/mL G418 as previously described in Thinakaran G, Teplow D B, Siman R, Greenberg B, Sisodia S S (1996) Metabolism of the “Swedish” amyloid precursor protein variant in neuro2a (N2a) cells. J Biol Chem 271: 9390-9397. N2a-SwedAPP cells were incubated at 37° C. in a 5% CO2/95% humidity incubator. Cells were seeded 24 hours prior to the treatments. When growth reached close to 90% of confluence, cells were transferred into DMEM with 1% FBS for loading extracts. The final concentration of DMSO in all experiments was 0.1%, and this concentration caused no cytotoxicity.
To detect the levels of APP metabolic products, the cell lysates and the conditioned media were prepared as described in Durairajan S S K, Liu L F, Lu J H, Koo I, Maruyama K, Chung S K, Huang J D, Li M. (2011) Stimulation of non-amyloidogenic processing of amyloid-β protein precursor by cryptotanshinone involves activation and translocation of ADAM10 and PKC-α. J Alzheimer's Dis 25: 245-262, with minor modification. N2a-SwedAPP cells were seeded at a density of 4×10^5/mL in DMEM medium in a 6-well plate and cultured for 1 day. After transfer, cells were treated with different doses of RC, CP, FG and RS for 48 hours, then the extracellular media were collected for detection of sAPPα and sAPPβ-sw, and cells were harvested to quantify F1-APP and β-actin by Western blot analysis, as described previously by Durairajan et al. For intracellular APP, APP-CTFs and Aβ preparation, cells were washed with ice-cold PBS twice and solubilized in ice-cold RIPA buffer with protease inhibitor cocktail added. Lysates were collected and centrifuged at 16,000×g for 15 minutes at 4° C. The resulting supernatants were collected, and their protein concentrations were determined with bicinchoninic acid (BCA) protein assay reagent (Thermo Scientific, IL, USA). For sAPPα and sAPPβ-sw detection, the conditioned media are collected and frozen in liquid nitrogen, subjected to lyophilization at −40° C. under vacuum of 105 μbar for 2 days in order to remove all liquid. The conditioned media were standardized to total cell lysate protein.
For Western blot analysis from cell culture or mouse brain, 10-30 μg total protein is separated on 10% and 15% SDS-PAGE gels and blotted onto PVDF membranes for the detection of full length APP (F1-APP), CTFs, sAPPα, sAPPβ-sw, 3-actin and phosphorylated APP (pAPPThr668). After blocking with 5% skimmed milk, the blots are incubated with primary antibodies overnight at 4° C. with shaking. Blots are washed and incubated with HRP-conjugated secondary antibodies. The goat anti-mouse IgG is used when the primary antibody is 6E10 (1:1000), sAPPβ-sw (1:100), or anti-β-actin (1:5000), and the goat anti-rabbit IgG is used when the primary antibody is anti-CT15 (1:5000) or pAPPThr668 (1:1000). After incubation with HRP-conjugated secondary antibody, immunoblots are treated with ECL and developed using X-ray films (Fujifilm). Films are scanned, and the band intensity is analyzed using Image J software (NIH Image).
Stripped CT15 and 6E10 probed membranes are reincubated with pAPPThr668 and sAPPβ-sw 6A1 antibodies, respectively.
Western blotting of N2a-SwedAPP cells is used to test differences in the processing of Swedish mutant APP by HLJDT components. Several antibodies are used in Western blot analysis: CT15 recognizes full length APP (F1-APP), 6E10 identifies only α-secretase-cleaved APP i.e sAPPα, and the sAPPβ-sw specific for β-secretase cleavage of Swedish mutant APP.

N2a-SwedAPP cells = assay: MTT viability assay in N2a-SwedAPP cells; conditions: mouse, 48 h
Method: as §1
For the viability assay, N2a-SwedAPP cells were seeded in a 96-well plate (7000 cells/well and 5000 cells/well). […] Finally, optical intensity was measured using a BioRad plate reader at 570 nm and a reference of 620 nm. […]
N2a-SwedishAPP cells are widely used as a cellular model of Alzheimer's disease, because they express a high level of APP and Aβ. The effects of HLJDT and its components on viability of N2SwedAPP cells are monitored by using the MTT assay. […]

Compound: O=c1cc(-c2ccccc2)oc2cc(O)c(O)c(O)c12 [baicalein]
- augmentation of intracellular Aβ1-40, fold of basal level ([1]; 12.5 μM, 48 h): 1.23 fold
- augmentation of intracellular Aβ1-42, fold of basal level ([1]; 12.5 μM, 48 h): 1.38 fold
- Aβs (overall influence) ([1]; N2a-SwedAPP cells): ↑
- maximal increase of CTFs, fold of basal release ([2]; 12.5 μM, 48 hours): 2.36 fold
- maximal increase of F1-APP, fold of basal release ([2]; 12.5 μM, 48 hours): 1.68 fold
- maximal increase of pAPPThr668, fold of basal release ([2]; 12.5 μM, 48 hours): 1.58 fold
- maximal secretion of sAPPα, fold of basal release ([2]; 12.5 μM, 48 hours): 2.65 fold
- maximal secretion of sAPPβ-sw, fold of basal release ([2]; 12.5 μM, 48 hours): 1.70 fold
- CTFs (overall influence) ([2]; N2a-SwedAPP cells): ↑
- Fl-APP (overall influence) ([2]; N2a-SwedAPP cells): ↑
- sAPPα (overall influence) ([2]; N2a-SwedAPP cells): ↑
- sAPPβ (overall influence) ([2]; N2a-SwedAPP cells): ↑
- non-toxic concentration (highest concentration that shows greater than 90% cell viability) (N2a-SwedAPP cells): 12.5 µM
